The values that follow come from patent publication US9877957B2, “Tetrahydroisoquinoline derivatives useful as inhibitors of diacylglyceride O-acyltransferase 2” (Merck Sharp & Dohme Corp., priority 2014, dated 2018).

The assay addresses hDGAT2 (Homo sapiens (Human), UniProt Q96PD7). As to the kind of experiment: DGAT2 Enzymatic Activity Assay (triolein formation, LC/MS/MS). The following applies: Sf-9 membrane prep expressing hDGAT2; 25 μM diolein, 10 μM oleoyl-CoA; room temperature; read-out: IC50 values for inhibition of DGAT2. Format: biochemical. How it is done:
In Vitro DGAT2 ASSAYS and Determination of IC50 Values for DGAT2 Inhibitors
Insect Cell Expression and Membrane Preparation
Sf-9 insect cells were maintained in Grace's insect cell culture medium with 10% heated-inactivated fetal bovine serum, 1% Pluronic F-68 and 0.14 μg/ml Kanamycine sulfate in Erlenmeyer flasks at 28° C. in a shaker incubator. After infection with untagged hDGAT2 baculovirus at multiplicity of infection (MOI) 0.1 for 48 hours, cells were harvested. Cell pellets were suspended in buffer containing 10 mM Tris-HCl (pH 7.5), 1 mM EDTA (pH 8.0), 250 mM sucrose and Complete Protease Inhibitor Cocktail (Roche Diagnostics Corp., Indianapolis, Ill.), and sonicated on ice. Membrane fractions were isolated by ultracentrifugation (100,000× g pellet), resuspended in the same buffer, and frozen (−80° C.) for later use. The protein concentration was determined with the BCA Protein Assay kit (Pierce Biotechnology Inc., Rockford, Ill.). Expression of protein levels was analyzed by immunoblotting with goat polyclonal DGAT2 antibody C-15 and donkey anti-goat IgG HRP (Santa Cruz Biotechnology, Inc., Santa Cruz, Calif.) followed by detection with ECL reagent (GE Healthcare, Piscataway, N.J.).
LC/MS/MS analyses were performed using Thermal Fisher's LX4-TSQ Vantage system. This system consists of an Agilent binary high-performance liquid chromatography (HPLC) pumps and a TSQ Vantage triple quadrupole MS/MS instrument. For each sample, 2 μL samples from the top organic layer of in-plate liquid-liquid extraction were injected onto a Thermo Betabasic C4 column (2.1 mm×20 mm, 5 μm particle size). The samples were then eluted using the following conditions; mobile phase: methanol/water with 0.1% ammonium format=92/8 (v/v), flow rate: 1 mL/min, temperature: 25° C. Data was acquired in positive mode using a heated electrospray ionization (HESI) interface. The operational parameters for the TSQ Vantage MS/MS instrument were a spray voltage of 3000 V, capillary temperature of 280° C., vaporizer temperature 400° C., shealth gas 60 arbitrary unit, Aux gas 40 arbitrary units, S-lens 113 and collision gas 0.16 Pascals. […] (SRM) chromatograms of triolein (Q1: 902.9>Q3:602.3) and internal standard (Q1: 902.9>Q3:602.3) were collected for 40 sec. The peak area was integrated by Xcalibur Quan software. The ratio between the triolein generated in the reaction and spiked in internal standard were used to generate percentage inhibition and IC50 values. Compound percentage inhibition was calculated by the following formula: Inhibition %=1−[(compound response−low control)/(high control−low control)]×100%. Potent compounds were titrated and IC50 were calculated by 4 parameter sigmoidal curve fitting formula.
DGAT2 Enzymatic Activity Assay
DGAT2 activity was determined by measuring the amount of enzymatic product triolein (1,2,3-Tri(cis-9-octadecenoyl)glycerol) using the membrane prep mentioned above. The assay was carried out in deep well 384 plates in a final volume of 40 μL at room temperature. The assay mixture contained the following: assay buffer (100 mM Tris·Cl, pH 7.0, 20 mM MgCl2, 5% ethanol), 25 μM of diolein, 10 μM of oleoyl-CoA and 10 ng/μL of DGAT2 membrane.

The structures appear in SMILES notation.

hDGAT2, sequence (Q96PD7 whole entry): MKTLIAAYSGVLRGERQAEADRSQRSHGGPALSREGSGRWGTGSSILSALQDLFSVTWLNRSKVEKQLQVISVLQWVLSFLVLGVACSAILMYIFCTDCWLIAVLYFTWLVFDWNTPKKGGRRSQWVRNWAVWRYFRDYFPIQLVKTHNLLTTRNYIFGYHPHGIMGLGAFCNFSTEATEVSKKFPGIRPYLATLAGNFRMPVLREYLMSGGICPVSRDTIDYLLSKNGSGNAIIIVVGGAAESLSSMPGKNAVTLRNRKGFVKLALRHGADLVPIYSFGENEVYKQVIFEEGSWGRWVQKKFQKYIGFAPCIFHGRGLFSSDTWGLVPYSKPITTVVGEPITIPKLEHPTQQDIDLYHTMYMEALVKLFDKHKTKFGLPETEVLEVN

As to `CC(C)(C)NC(=O)N1CCc2c(-c3cccc(C(F)(F)F)c3)ccc(C(=O)NCC(c3ccccn3)N3CCOCC3)c2C1` (stereo not drawn) [Example 36, N^2-(tert-butyl)-N^8-(2-morpholino-2-(pyridin-2-yl)ethyl)-5-(3-(trifluoromethyl)phenyl)-3,4-dihydroisoquinoline-2,8(1H)-dicarboxamide], the IC50 was determined as 0.737 µM.

For `Cc1nn2cc(CCNC(=O)c3ccc(-c4cccc(C(F)(F)F)c4)c4c3CN(C(=O)NC(C)(C)C)CC4)nc2s1` [Example 25, N^2-(tert-butyl)-N^8-(2-(2-methylimidazo[2,1-b][1,3,4]thiadiazol-6-yl)ethyl)-5-(3-(trifluoromethyl)phenyl)-3,4-dihydroisoquinoline-2,8(1H)-dicarboxamide], the IC50 was found to be 0.271 µM.

As for `CC(C)(C)NC(=O)N1CCc2c(-c3cccc(C(F)(F)F)c3)ccc(C(=O)NCCc3nc4ccc(Cl)cc4[nH]3)c2C1` [Example 58, N^2-(tert-butyl)-N^8-(2-(6-chloro-1H-benzo[d]imidazol-2-yl)ethyl)-5-(3-(trifluoromethyl)phenyl)-3,4-dihydroisoquinoline-2,8(1H)-dicarboxamide], the concentration for half-maximal inhibition (IC50) worked out at 0.0167 µM.

In the case of `Cc1nnc(CCNC(=O)c2ccc(-c3cccc(C(F)(F)F)c3)c3c2CN(C(=O)NC(C)(C)C)CC3)[nH]1` [Example 47, N^2-(tert-butyl)-N^8-(2-(5-methyl-4H-1,2,4-triazol-3-yl)ethyl)-5-(3-(trifluoromethyl)phenyl)-3,4-dihydroisoquinoline-2,8(1H)-dicarboxamide], the half-maximal inhibitory concentration (IC50) amounted to 1.2 µM.

Regarding `CC(C)(C)NC(=O)N1CCc2c(-c3cccc(C(F)(F)F)c3)ccc(C(=O)NCCc3nc4cc(Cl)c(Cl)cc4[nH]3)c2C1` [Example 7, N^2-(tert-butyl)-N^8-(2-(5,6-dichloro-1H-benzo[d]imidazol-2-yl)ethyl)-5-(3-(trifluoromethyl)phenyl)-3,4-dihydroisoquinoline-2,8(1H)-dicarboxamide], the IC50 came to 0.0159 µM.

Take `CC(C)(C)NC(=O)N1CCc2c(-c3cccc(C(F)(F)F)c3)ccc(C(=O)NCCc3nc4cc(Cl)ccc4[nH]3)c2C1` [Example 6, N^2-(tert-butyl)-N^8-(2-(5-chloro-1H-benzo[d]imidazol-2-yl)ethyl)-5-(3-(trifluoromethyl)phenyl)-3,4-dihydroisoquinoline-2,8(1H)-dicarboxamide]: the IC50 was 0.0119 µM.

Take `CC(C)(C)NC(=O)N1CCc2c(-c3cccc(C(F)(F)F)c3)ccc(C(=O)NCc3ccnc4ccccc34)c2C1` [Example 26, N^2-(tert-butyl)-N^8-(quinolin-4-ylmethyl)-5-(3-(trifluoromethyl)phenyl)-3,4-dihydroisoquinoline-2,8(1H)-dicarboxamide]: the IC50 is 0.292 µM.

As for `CC(C)(C)NC(=O)N1CCc2c(-c3cccc(OC(F)(F)F)c3)ccc(C(=O)N3CCCCC3c3ccccc3)c2C1` (stereo not drawn) [Example 57, N-(tert-butyl)-8-(2-phenylpiperidine-1-carbonyl)-5-(3-(trifluoromethoxy)phenyl)-3,4-dihydroisoquinoline-2(1H)-carboxamide], the IC50 was 8.76 µM.

`Cc1nnc(CCNC(=O)c2ccc(-c3cccc(C(F)(F)F)c3)c3c2CN(C(=O)NC(C)(C)C)CC3)[nH]1` [Example 60, N^2-(tert-butyl)-N^8-(2-(5-methyl-4H-1,2,4-triazol-3-yl)ethyl)-5-(3-(trifluoromethyl)phenyl)-3,4-dihydroisoquinoline-2,8(1H)-dicarboxamide]: the IC50 came out at 1.35 µM.

As to `Cc1sc(-c2ccccc2)nc1CNC(=O)c1ccc(-c2cccc(C(F)(F)F)c2)c2c1CN(C(=O)NC(C)(C)C)CC2` [Example 32, N^2-(tert-butyl)-N^8-((5-methyl-2-phenylthiazol-4-yl)methyl)-5-(3-(trifluoromethyl)phenyl)-3,4-dihydroisoquinoline-2,8(1H)-dicarboxamide], the IC50 was found to be 0.539 µM.

As for `CC(C)(C)NC(=O)N1CCc2c(-c3cccc(C(F)(F)F)c3)ccc(C(=O)NCc3ccc4nonc4c3)c2C1` [Example 17, N^8-(benzo[c][1,2,5]oxadiazol-5-ylmethyl)-N^2-(tert-butyl)-5-(3-(trifluoromethyl)phenyl)-3,4-dihydroisoquinoline-2,8(1H)-dicarboxamide], the IC50 turned out to be 0.132 µM.

Turning to `CC(C)(C)NC(=O)N1CCc2c(-c3cccc(C(F)(F)F)c3)ccc(C(=O)NCc3cccc4cnccc34)c2C1` [Example 12, N^2-(tert-butyl)-N^8-(isoquinolin-5-ylmethyl)-5-(3-(trifluoromethyl)phenyl)-3,4-dihydroisoquinoline-2,8(1H)-dicarboxamide], the IC50 came to 0.0686 µM.

`CC(C)(C)NC(=O)N1CCc2c(-c3cccc(C(F)(F)F)c3)ccc(C(=O)NCCc3ncn[nH]3)c2C1` [Example 42, N^8-(2-(1H-1,2,4-triazol-5-yl)ethyl)-N^2-(tert-butyl)-5-(3-(trifluoromethyl)phenyl)-3,4-dihydroisoquinoline-2,8(1H)-dicarboxamide]: the IC50 worked out at 0.959 µM.

Regarding `Cc1ccc2[nH]c(CCNC(=O)c3ccc(-c4cccc(C(F)(F)F)c4)c4c3CN(C(=O)NC(C)(C)C)CC4)nc2c1` [Example 14, N^2-(tert-butyl)-N^8-(2-(5-methyl-1H-benzo[d]imidazol-2-yl)ethyl)-5-(3-(trifluoromethyl)phenyl)-3,4-dihydroisoquinoline-2,8(1H)-dicarboxamide], the IC50 was determined as 0.103 µM.

`CC(NC(=O)c1ccc(-c2cccc(C(F)(F)F)c2)c2c1CN(C(=O)NC(C)(C)C)CC2)c1nnc[nH]1` (stereo not drawn) [Example 62, N^8-(1-(4H-1,2,4-triazol-3-yl)ethyl)-N^2-(tert-butyl)-5-(3-(trifluoromethyl)phenyl)-3,4-dihydroisoquinoline-2,8(1H)-dicarboxamide]: the IC50 stood at 3.84 µM.

For `CC(C)(C)NC(=O)N1CCc2c(-c3cccc(C(F)(F)F)c3)ccc(C(=O)NCCc3cn4ccsc4n3)c2C1` [Example 18, N^2-(tert-butyl)-N^8-(2-(imidazo[2,1-b]thiazol-6-yl)ethyl)-5-(3-(trifluoromethyl)phenyl)-3,4-dihydroisoquinoline-2,8(1H)-dicarboxamide], the IC50 stood at 0.133 µM.

On to `Cn1c(CCNC(=O)c2ccc(-c3cccc(C(F)(F)F)c3)c3c2CN(C(=O)NC(C)(C)C)CC3)nc2ccccc21` [Example 20, N^2-(tert-butyl)-N^8-(2-(1-methyl-1H-benzo[d]imidazol-2-yl)ethyl)-5-(3-(trifluoromethyl)phenyl)-3,4-dihydroisoquinoline-2,8(1H)-dicarboxamide], for which the IC50 turned out to be 0.205 µM.

As for `COc1ccc2nc(CCNC(=O)c3ccc(-c4cccc(C(F)(F)F)c4)c4c3CN(C(=O)NCC(F)(F)F)CC4)[nH]c2c1` [Example 59, N^8-(2-(6-methoxy-1H-benzo[d]imidazol-2-yl)ethyl)-N^2-(2,2,2-trifluoroethyl)-5-(3-(trifluoromethyl)phenyl)-3,4-dihydroisoquinoline-2,8(1H)-dicarboxamide], the IC50 came out at 0.0829 µM.

`CC(C)(C)NC(=O)N1CCc2c(-c3cccc(C(F)(F)F)c3)ccc(C(=O)NCCn3cnnc3)c2C1` [Example 71, N^8-(2-(4H-1,2,4-triazol-4-yl)ethyl)-N^2-(tert-butyl)-5-(3-(trifluoromethyl)phenyl)-3,4-dihydroisoquinoline-2,8(1H)-dicarboxamide]: the IC50 was found to be 0.178 µM.

With `CC(C)(C)NC(=O)N1CCc2c(-c3cccc(C(F)(F)F)c3)ccc(C(=O)N[C@H]3C[C@@H]3c3ccccc3)c2C1` (relative stereo) [Example 65, N^2-(tert-butyl)-N^8-((trans)-2-phenylcyclopropyl)-5-(3-(trifluoromethyl)phenyl)-3,4-dihydroisoquinoline-2,8(1H)-dicarboxamide], the IC50 stood at 1.02 µM.

Regarding `CC(C)(C)NC(=O)N1CCc2c(-c3cccc(OC(F)(F)F)c3)ccc(C(=O)NCCn3ccnn3)c2C1` [Example 76, N^8-(2-(1H-1,2,3-triazol-1-yl)ethyl)-N^2-(tert-butyl)-5-(3-(trifluoromethoxy)phenyl)-3,4-dihydroisoquinoline-2,8(1H)-dicarboxamide], the IC50 worked out at 2.58 µM.
